Each structure is given as a SMILES string.

One data set concerns A-375. Description: Antiproliferative activity against human A375 cells after 48 hrs by propidium iodide fluorescence assay. The data set is classed as functional, cell-based. To be noted: A-375, 48 h.
The subject of data set [1] is NCI-H460. Nature of the data set: Cell cycle arrest in human NCI-H460 cells assessed as accumulation of cells at G2 phase at 0.2 uM after 24 hrs by propidium iodide staining-based flow cytometric analysis (reference value: 10%). Type of data set: functional. On the technique in general: Flow cytometry measures light scatter and fluorescence of single cells or particles in a stream.

In data set [2] the test system is NCI-H460. Description: Induction of apoptosis in human NCI-H460 cells assessed as necrotic cells at 0.2 uM after 24 hrs by Annexin V-FITC/propidium iodide staining-based flow cytometric analysis relative to control. The data set is classed as functional.
Data set [3] concerns NCI-H460. Nature of the data set: Cell cycle arrest in human NCI-H460 cells assessed as accumulation of cells at S phase at 0.2 uM after 24 hrs by propidium iodide staining-based flow cytometric analysis (reference value: 42.61%). The data set is classed as functional.
Data set [4] addresses Epidermal growth factor receptor (Homo sapiens, UniProt P00533). Nature of the data set: Inhibition of His6-tagged EGFR cytoplasmic domain (645 to 1186 residues) (unknown origin) expressed in baculovirus infected Sf9 insect cells after 10 mins by DELFIA/time-resolved fluorometry.
Data set [5] deals with NCI-H460. Description: Cell cycle arrest in human NCI-H460 cells assessed as apoptotic cells at 0.2 uM after 24 hrs by propidium iodide staining-based flow cytometric analysis (reference value: 1.55%). The data set is classed as functional.
The next data set deals with MIA PaCa-2. Nature of the data set: Antiproliferative activity against human MIAPaCa2 cells after 48 hrs by propidium iodide fluorescence assay. Type of data set: functional, cell-based. To be noted: MIA PaCa-2, 48 h.
In data set [6] the test system is NCI-H460. Nature of the data set: Induction of apoptosis in human NCI-H460 cells assessed as early apoptotic cells at 0.2 uM after 24 hrs by Annexin V-FITC/propidium iodide staining-based flow cytometric analysis relative to control. Type of data set: functional.
A short description of data set [7]: Cytotoxicity in human MCF10A cells assessed as cell viability incubated for 4 days by MTT assay. The data set is classed as cell-based, MCF-10A. On the set-up: concentration or dose not given beside the values. The settings on record: read-out: Activity.
The test system of another data set is PANC-1. Description: Antiproliferative activity against human PANC1 cells after 48 hrs by propidium iodide fluorescence assay. The data set is classed as functional, cell-based. The settings on record: PANC-1, 48 h.
The test system of data set [8] is NCI-H460. Description: Antiproliferative activity against human NCI-H460 cells after 48 hrs by propidium iodide fluorescence assay. Type of data set: functional, cell-based. To be noted: NCI-H460, 48 h.
The test system of a further data set is HT-29. Nature of the data set: Antiproliferative activity against human HT-29 cells after 48 hrs by propidium iodide fluorescence assay. The data set is classed as functional, cell-based. To be noted: HT-29, 48 h.
Data set [9] concerns NCI-H460. Description: Cell cycle arrest in human NCI-H460 cells assessed as accumulation of cells at G1 phase at 0.2 uM after 24 hrs by propidium iodide staining-based flow cytometric analysis (reference value: 47.39%). The data set is classed as functional.
Data set [10] deals with NCI-H460. Description: Induction of apoptosis in human NCI-H460 cells assessed as late apoptotic cells at 0.2 uM after 24 hrs by Annexin V-FITC/propidium iodide staining-based flow cytometric analysis relative to control. The data set is classed as functional.
Data set [11] addresses Vascular endothelial growth factor receptor 1 (Homo sapiens, UniProt P17948). Nature of the data set: Inhibition of VEGFR1 (unknown origin).
The target in data set [12] is Serine/threonine-protein kinase Chk2 (Homo sapiens, UniProt O96017). Nature of the data set: Inhibition of CHK2 (unknown origin).
Serine/threonine-protein kinase Chk2, sequence (O96017 whole entry): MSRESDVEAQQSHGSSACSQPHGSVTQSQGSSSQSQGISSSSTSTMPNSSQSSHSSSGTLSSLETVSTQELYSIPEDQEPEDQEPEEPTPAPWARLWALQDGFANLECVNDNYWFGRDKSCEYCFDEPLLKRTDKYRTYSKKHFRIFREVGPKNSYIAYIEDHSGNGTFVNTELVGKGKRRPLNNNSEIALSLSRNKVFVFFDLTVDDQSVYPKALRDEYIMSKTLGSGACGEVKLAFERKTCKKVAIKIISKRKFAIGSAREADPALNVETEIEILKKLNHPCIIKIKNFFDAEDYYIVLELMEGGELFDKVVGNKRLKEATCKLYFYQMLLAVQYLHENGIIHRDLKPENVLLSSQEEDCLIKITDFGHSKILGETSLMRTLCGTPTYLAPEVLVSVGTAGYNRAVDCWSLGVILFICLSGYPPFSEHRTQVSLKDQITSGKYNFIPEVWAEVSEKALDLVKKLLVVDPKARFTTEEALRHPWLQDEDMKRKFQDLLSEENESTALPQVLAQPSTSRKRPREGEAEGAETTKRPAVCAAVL

Epidermal growth factor receptor, sequence (P00533 whole entry, the tested form may be a part): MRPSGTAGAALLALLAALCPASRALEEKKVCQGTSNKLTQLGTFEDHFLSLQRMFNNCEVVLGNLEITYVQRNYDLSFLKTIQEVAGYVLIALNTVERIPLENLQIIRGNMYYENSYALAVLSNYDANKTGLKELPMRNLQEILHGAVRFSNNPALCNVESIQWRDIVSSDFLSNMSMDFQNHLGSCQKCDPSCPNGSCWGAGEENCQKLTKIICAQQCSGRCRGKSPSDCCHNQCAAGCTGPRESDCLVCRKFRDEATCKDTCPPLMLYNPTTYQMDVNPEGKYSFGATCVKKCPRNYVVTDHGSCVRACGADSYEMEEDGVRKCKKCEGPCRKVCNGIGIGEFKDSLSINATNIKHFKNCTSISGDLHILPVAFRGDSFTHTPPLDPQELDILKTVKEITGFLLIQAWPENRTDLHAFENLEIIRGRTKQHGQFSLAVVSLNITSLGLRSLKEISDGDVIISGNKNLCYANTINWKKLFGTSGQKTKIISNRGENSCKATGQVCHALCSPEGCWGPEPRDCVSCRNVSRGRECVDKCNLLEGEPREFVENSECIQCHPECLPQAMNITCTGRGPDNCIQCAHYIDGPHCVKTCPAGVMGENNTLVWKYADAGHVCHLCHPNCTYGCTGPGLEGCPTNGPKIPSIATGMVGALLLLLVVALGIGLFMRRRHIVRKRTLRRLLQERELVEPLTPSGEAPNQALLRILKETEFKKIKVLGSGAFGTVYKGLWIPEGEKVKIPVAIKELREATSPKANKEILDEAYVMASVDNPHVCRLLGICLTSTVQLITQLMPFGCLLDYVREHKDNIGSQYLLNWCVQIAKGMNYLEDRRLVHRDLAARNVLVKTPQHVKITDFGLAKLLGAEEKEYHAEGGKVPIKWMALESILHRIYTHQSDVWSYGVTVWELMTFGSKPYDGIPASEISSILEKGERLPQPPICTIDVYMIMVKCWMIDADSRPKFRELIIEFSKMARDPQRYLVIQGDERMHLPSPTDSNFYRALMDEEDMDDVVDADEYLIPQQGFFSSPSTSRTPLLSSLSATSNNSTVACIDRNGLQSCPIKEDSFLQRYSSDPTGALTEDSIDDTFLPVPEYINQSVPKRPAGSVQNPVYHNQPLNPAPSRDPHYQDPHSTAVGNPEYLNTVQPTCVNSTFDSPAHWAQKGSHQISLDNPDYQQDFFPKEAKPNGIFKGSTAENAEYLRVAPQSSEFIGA
Vascular endothelial growth factor receptor 1, sequence (P17948 whole entry): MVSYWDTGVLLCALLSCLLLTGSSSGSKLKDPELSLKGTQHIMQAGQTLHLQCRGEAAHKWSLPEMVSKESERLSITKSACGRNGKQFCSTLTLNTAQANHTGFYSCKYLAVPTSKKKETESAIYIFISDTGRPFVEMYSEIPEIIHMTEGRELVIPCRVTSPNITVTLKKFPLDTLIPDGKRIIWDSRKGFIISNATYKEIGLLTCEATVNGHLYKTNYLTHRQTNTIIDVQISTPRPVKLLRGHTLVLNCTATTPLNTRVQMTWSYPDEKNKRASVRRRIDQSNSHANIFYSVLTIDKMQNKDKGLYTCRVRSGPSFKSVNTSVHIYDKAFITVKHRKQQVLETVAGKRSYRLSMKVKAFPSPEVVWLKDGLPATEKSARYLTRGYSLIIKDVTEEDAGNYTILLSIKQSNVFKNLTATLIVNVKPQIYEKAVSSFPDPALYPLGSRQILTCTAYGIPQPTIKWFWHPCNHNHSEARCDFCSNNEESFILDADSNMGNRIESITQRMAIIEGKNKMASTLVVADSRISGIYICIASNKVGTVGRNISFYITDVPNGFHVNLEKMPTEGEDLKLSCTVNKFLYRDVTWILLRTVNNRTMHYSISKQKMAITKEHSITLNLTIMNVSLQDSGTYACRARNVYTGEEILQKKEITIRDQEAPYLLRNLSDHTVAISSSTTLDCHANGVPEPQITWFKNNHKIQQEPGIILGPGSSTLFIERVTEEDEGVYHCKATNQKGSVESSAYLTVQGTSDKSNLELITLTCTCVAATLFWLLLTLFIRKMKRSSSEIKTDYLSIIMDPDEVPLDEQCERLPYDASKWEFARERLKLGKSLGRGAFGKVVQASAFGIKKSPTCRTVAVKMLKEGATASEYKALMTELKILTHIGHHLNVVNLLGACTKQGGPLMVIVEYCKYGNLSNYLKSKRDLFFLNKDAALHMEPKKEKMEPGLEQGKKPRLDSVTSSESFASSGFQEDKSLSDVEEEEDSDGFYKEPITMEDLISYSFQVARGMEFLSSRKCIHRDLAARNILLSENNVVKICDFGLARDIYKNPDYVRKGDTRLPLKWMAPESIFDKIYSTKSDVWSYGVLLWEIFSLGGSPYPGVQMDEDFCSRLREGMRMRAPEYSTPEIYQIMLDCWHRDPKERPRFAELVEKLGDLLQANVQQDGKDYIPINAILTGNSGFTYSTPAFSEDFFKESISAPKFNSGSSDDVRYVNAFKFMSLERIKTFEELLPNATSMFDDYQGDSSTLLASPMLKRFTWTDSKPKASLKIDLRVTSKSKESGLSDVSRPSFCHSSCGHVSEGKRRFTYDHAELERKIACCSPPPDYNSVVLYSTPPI

Consider `COc1ccc(/C=C/C(=O)c2ccc(NC(=O)c3cc4cc5cc(C)ccc5nc4s3)cc2)cc1OC`, for which the IC50 came to 2 µM in the data set on A-375; 0.5 µM in data set [4]; 0.9 µM with MIA PaCa-2; 1.2 µM in the data set with PANC-1; 0.9 µM in the data set with NCI-H460 [8]; 1 µM in the data set with HT-29. The Activity in the data set on NCI-H460 [1] is on record as 38.31%; in the data set on NCI-H460 [2], 2.31%; in the data set with NCI-H460 [3], 17.45%; in the data set on NCI-H460 [5], 15.72%; in the data set with NCI-H460 [6], 7.22%; in the data set on NCI-H460 [9], 44.24%. Further, the Activity with NCI-H460 [10] is 9.08%. Further, the viability at 96 h in [7] is greater than 91%.

On to `COc1ccc2nc3sc(C(=O)Nc4ccc(C(=O)/C=C/c5ccc(OC)c(OC)c5)cc4)cc3cc2c1`, for which the 50% inhibitory concentration (IC50) in the data set with A-375 was determined as 1.6 µM; in data set [4], 0.7 µM; with MIA PaCa-2, 0.8 µM; in the data set with PANC-1, 1 µM; with NCI-H460 [8] it was 0.2 µM; in the data set with HT-29, 0.5 µM. Further, the viability at 96 h in [7] is greater than 91%.

`COc1cccc(/C=C/C(=O)c2ccc(NC(=O)c3cc4cc5cc(OC)ccc5nc4s3)cc2)c1`: the IC50 in the data set on A-375 was greater than 50 µM; in data set [4], 2.8 µM; in the data set on MIA PaCa-2, 4.9 µM; in the data set on PANC-1, 4.5 µM; in the data set on NCI-H460 [8], 5.5 µM; with HT-29, 6.7 µM. Besides, the viability at 96 h in data set [7] is greater than 91%.

As for `COc1cc(/C=C/C(=O)c2ccc(NC(=O)c3cc4cc5cc(C)ccc5nc4s3)cc2)cc(OC)c1OC`, the concentration for half-maximal inhibition (IC50) worked out at 6.4 µM with A-375; 3.2 µM in data set [4]; 2 µM with MIA PaCa-2; 2.2 µM in the data set on PANC-1; 3.2 µM with NCI-H460 [8]; 3.7 µM in the data set with HT-29. The viability at 96 h in [7] is greater than 91%.

For `COc1cc(/C=C/C(=O)c2ccc(NC(=O)c3cc4cc5ccccc5nc4s3)cc2)cc(OC)c1OC`, the half-maximal inhibitory concentration (IC50) is 4.2 µM in the data set with A-375; 1.2 µM in data set [4]; 1.7 µM in the data set with MIA PaCa-2; 1.4 µM with PANC-1; 2.7 µM in the data set with NCI-H460 [8]; 2.5 µM in the data set on HT-29. Besides, the viability at 96 h in data set [7] is greater than 91%.

Consider `O=C(/C=C/c1ccc(Cl)cc1)c1ccc(NC(=O)c2cc3cc4ccccc4nc3s2)cc1`, for which the IC50 is 19.4 µM in the data set with A-375; 6.2 µM in the data set with MIA PaCa-2; 5.9 µM with PANC-1; 6.7 µM in the data set with NCI-H460 [8]; 7.9 µM in the data set on HT-29. Further, the viability at 96 h in data set [7] is greater than 91%.

Take `Cc1ccc2nc3sc(C(=O)Nc4ccc(C(=O)/C=C/c5ccc(Cl)cc5)cc4)cc3cc2c1`: the IC50 in the data set on A-375 stood at 39.6 µM; with MIA PaCa-2, 9.4 µM; with PANC-1, 9.6 µM; in the data set on NCI-H460 [8] it was 9.2 µM; in the data set on HT-29 it was 11.6 µM. In addition, the viability at 96 h in data set [7] was greater than 91%.

On to `COc1ccc2nc3sc(C(=O)Nc4ccc(C(=O)/C=C/c5ccc(Cl)cc5)cc4)cc3cc2c1`, for which the IC50 in the data set with A-375 came out at 44.6 µM; with MIA PaCa-2, 14.4 µM; in the data set on PANC-1, 13.8 µM; in the data set with NCI-H460 [8], 12.2 µM; with HT-29 it was 17.2 µM. In addition, in [7], the viability at 96 h is greater than 91%.

`COc1cccc(/C=C/C(=O)c2ccc(NC(=O)c3cc4cc5cc(C)ccc5nc4s3)cc2)c1`: the IC50 stood at 17.6 µM in the data set with A-375; 2.9 µM in data set [4]; 3.7 µM in the data set on MIA PaCa-2; 3.5 µM in the data set with PANC-1; 3.6 µM in the data set on NCI-H460 [8]; 4.2 µM in the data set on HT-29. Further, the viability at 96 h in [7] was greater than 91%.

In the case of `COc1ccc2nc3sc(C(=O)Nc4ccc(C(=O)/C=C/c5cc(OC)c(OC)c(OC)c5)cc4)cc3cc2c1`, the IC50 turned out to be 3.8 µM in the data set with A-375; 1.4 µM in data set [4]; 1 µM in the data set on MIA PaCa-2; 1.4 µM in the data set on PANC-1; 1.9 µM in the data set on NCI-H460 [8]; 1.4 µM in the data set with HT-29. In addition, the viability at 96 h in data set [7] is greater than 91%.

Regarding `O=C(/C=C/c1ccccc1)c1ccc(NC(=O)c2cc3cc4ccccc4nc3s2)cc1`, the IC50 in the data set on A-375 was greater than 50 µM; with MIA PaCa-2, 12.5 µM; in the data set on HT-29, 14.9 µM. In addition, in data set [7], the viability at 96 h is greater than 91%.

For the molecule `Cc1ccc2nc3sc(C(=O)Nc4ccc(C(=O)/C=C/c5ccccc5)cc4)cc3cc2c1`, the concentration for half-maximal inhibition (IC50) worked out at 25.9 µM with A-375; 9.2 µM in the data set with MIA PaCa-2; 9.5 µM in the data set with PANC-1; 9.7 µM with NCI-H460 [8]; 10.4 µM in the data set with HT-29. In addition, in [7], the viability at 96 h was greater than 91%.

Take `CCCCNc1ncnc2c1sc1nc3ccccc3cc12`: the half-inhibitory concentration (IC50) in [11] came to 0.54 µM; in data set [12], 1.7 µM.

Consider `COc1ccc(/C=C/C(=O)c2ccc(NC(=O)c3cc4cc5ccccc5nc4s3)cc2)cc1OC`, for which the IC50 was determined as 2.4 µM in the data set on A-375; 1.6 µM in data set [4]; 0.5 µM in the data set with MIA PaCa-2; 1.2 µM with NCI-H460 [8]; 1.1 µM with HT-29. Besides, in data set [7], the viability at 96 h was greater than 91%.

Turning to `COc1cccc(/C=C/C(=O)c2ccc(NC(=O)c3cc4cc5ccccc5nc4s3)cc2)c1`, the 50% inhibitory concentration (IC50) in the data set on A-375 amounted to 28.4 µM; in the data set with MIA PaCa-2, 6.2 µM; in the data set on PANC-1, 6.7 µM; with NCI-H460 [8] it was 9.7 µM; in the data set on HT-29, 9.4 µM. Also, the viability at 96 h in [7] was greater than 91%.

Turning to `COc1ccc2nc3sc(C(=O)Nc4ccc(C(=O)/C=C/c5ccccc5)cc4)cc3cc2c1`, the IC50 came out at 16.7 µM with A-375; 5.9 µM in the data set on MIA PaCa-2; 5.5 µM in the data set with PANC-1; 6.5 µM in the data set with NCI-H460 [8]; 7.8 µM with HT-29. In addition, in data set [7], the viability at 96 h was greater than 91%.

One may read the IC50 as the concentration that gives 50% inhibition.

The record behind these values is ChEMBL document CHEMBL4368931, “Discovery of novel thienoquinoline-2-carboxamide chalcone derivatives as antiproliferative EGFR tyrosine kinase inhibitors” (Bioorg Med Chem, 2019).
